Calls of active or inactive are those of the source. The rule behind the calls is not given here.
Experiments:
[1] = target: T1, Gamma-hydroxybutyrate receptor (Rattus norvegicus) (UniProt Q6RY99); test: Binding affinity to succinic acid binding site of gamma-hydroxybutyrate receptor in rat forebrain synaptic membranes at 100 uM; assay type: cell membranes; settings: Membrane
T1 sequence (whole entry): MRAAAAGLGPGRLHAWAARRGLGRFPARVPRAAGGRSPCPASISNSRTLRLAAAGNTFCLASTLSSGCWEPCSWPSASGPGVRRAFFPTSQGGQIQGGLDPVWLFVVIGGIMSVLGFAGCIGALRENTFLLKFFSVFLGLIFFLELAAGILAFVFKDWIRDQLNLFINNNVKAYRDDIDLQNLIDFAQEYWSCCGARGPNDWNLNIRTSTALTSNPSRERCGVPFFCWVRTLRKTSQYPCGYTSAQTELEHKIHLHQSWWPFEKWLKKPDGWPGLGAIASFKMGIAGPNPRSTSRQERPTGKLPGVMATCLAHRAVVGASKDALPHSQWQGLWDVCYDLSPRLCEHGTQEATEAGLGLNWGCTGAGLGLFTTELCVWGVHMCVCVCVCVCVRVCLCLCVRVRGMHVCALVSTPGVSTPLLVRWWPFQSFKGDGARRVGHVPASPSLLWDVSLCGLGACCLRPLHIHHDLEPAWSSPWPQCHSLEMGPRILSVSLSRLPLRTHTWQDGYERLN

[2] = target: T1, Gamma-hydroxybutyrate receptor (Rattus norvegicus); test: Binding affinity to gamma-hydroxybutyrate binding site of gamma-hydroxybutyrate receptor in rat forebrain synaptic membranes at 100 uM; assay type: cell membranes; settings: Membrane
[3] = target: T2, Gamma-hydroxybutyrate receptor (Rattus norvegicus, UniProt Q6RY99); test: Displacement of [3H]SUC from succinic acid binding site of gamma-hydroxybutyrate receptor in rat forebrain synaptic membranes
T2 sequence (Q6RY99 whole entry): T1 sequence (whole entry)

[4] = target: Calcium/calmodulin-dependent protein kinase type II subunit alpha (Rattus norvegicus, UniProt P11275); test: Displacement of [3H]GHB from gamma-hydroxybutyrate binding site of gamma-hydroxybutyrate receptor in rat forebrain synaptic membranes; assay type: cell membranes, Membrane
Calcium/calmodulin-dependent protein kinase type II subunit alpha, sequence (P11275 whole entry): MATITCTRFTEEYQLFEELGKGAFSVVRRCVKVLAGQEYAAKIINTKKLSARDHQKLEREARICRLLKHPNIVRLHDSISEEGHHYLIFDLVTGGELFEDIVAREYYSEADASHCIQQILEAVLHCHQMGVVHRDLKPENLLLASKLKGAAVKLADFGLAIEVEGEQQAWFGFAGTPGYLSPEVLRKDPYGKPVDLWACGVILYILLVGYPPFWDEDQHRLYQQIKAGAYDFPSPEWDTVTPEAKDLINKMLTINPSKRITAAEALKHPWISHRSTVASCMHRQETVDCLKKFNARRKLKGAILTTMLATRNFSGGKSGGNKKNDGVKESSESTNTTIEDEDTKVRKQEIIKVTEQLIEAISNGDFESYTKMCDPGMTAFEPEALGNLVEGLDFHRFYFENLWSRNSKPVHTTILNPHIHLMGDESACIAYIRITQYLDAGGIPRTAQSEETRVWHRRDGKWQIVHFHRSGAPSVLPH

| Structure (SMILES) | Activity [1] | Activity [2] | IC50 [3] [µM] | IC50 [4] [µM] |
| --- | --- | --- | --- | --- |
| O=C(O)[C@H]1C[C@H](O)CCN1 | inactive | inactive | – | – |
| O=C(O)/C=C1\CCCc2ccccc2[C@H]1O | – | – | 74 | 93 |
| COC(=O)[C@@H]1C[C@H](O)CCN1 | inactive | inactive | – | – |
| O=C(O)/C=C1\CCCc2ccccc2C1O (racemic) | – | – | 0.5 | 0.9 |
| O=C(O)/C=C1\CCCc2ccccc2[C@@H]1O | – | – | 0.4 | 0.8 |
| O=C(O)[C@@H]1C[C@H](O)CCN1 | inactive | inactive | – | – |
| O=C(O)[C@H]1C[C@@H](O)CCN1 | 26% | 30% | – | – |
| COC(=O)[C@H]1C[C@H](O)CCN1 | inactive | inactive | – | – |

Source: ChEMBL document CHEMBL1152142, “Validation of high-affinity binding sites for succinic acid through distinguishable binding of gamma-hydroxybutyric acid receptor-specific NCS 382 antipodes” (Bioorg Med Chem Lett, 2008)
